Blank lines part the entries; values can stand above or below the compound they belong to.
System: 885512-296-R-J2-PDC complex spheroid viability
Assay: Anticancer human tumor 885512-296-R-J2-PDC patient-derived breast carcinoma cell line growth inhibition [GQUAD]
Settings: for IC50: curve of first compound; for viability, T/C: stronger effect = lower value
How it was run: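 Tumor cells were grown as complex spheroids with HUVEC endothelial cells and mesenchymal stem cells as stroma. G-quadruplex stabilizers were combined with targeted agents over half-log dilutions from near the clinical Cmax, or from 10 microM.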

[1] = second compound 0.0316 µM, first compound 0.0316 µM
[2] = second compound 0.0316 µM, first compound 0.1 µM
[3] = second compound 0.0316 µM, first compound 0.316 µM
[4] = second compound 0.0316 µM, first compound 1 µM
[5] = second compound 0.0316 µM, first compound 3.16 µM
[6] = second compound 0.0316 µM, first compound 10 µM
[7] = second compound 0.1 µM, first compound 0.0316 µM
[8] = second compound 0.1 µM, first compound 0.1 µM
[9] = second compound 0.1 µM, first compound 0.316 µM
[10] = second compound 0.1 µM, first compound 1 µM
[11] = second compound 0.1 µM, first compound 3.16 µM
[12] = second compound 0.1 µM, first compound 10 µM
[13] = second compound 0.316 µM, first compound 0.0316 µM
[14] = second compound 0.316 µM, first compound 0.1 µM
[15] = second compound 0.316 µM, first compound 0.316 µM
[16] = second compound 0.316 µM, first compound 1 µM
[17] = second compound 0.316 µM, first compound 3.16 µM
[18] = second compound 0.316 µM, first compound 10 µM
[19] = second compound 1 µM, first compound 0.0316 µM
[20] = second compound 1 µM, first compound 0.1 µM
[21] = second compound 1 µM, first compound 0.316 µM
[22] = second compound 1 µM, first compound 1 µM
[23] = second compound 1 µM, first compound 3.16 µM
[24] = second compound 1 µM, first compound 10 µM
[25] = second compound 3.16 µM, first compound 0.0316 µM
[26] = second compound 3.16 µM, first compound 0.1 µM
[27] = second compound 3.16 µM, first compound 0.316 µM
[28] = second compound 3.16 µM, first compound 1 µM
[29] = second compound 3.16 µM, first compound 3.16 µM
[30] = second compound 3.16 µM, first compound 10 µM
[31] = second compound 10 µM, first compound 0.0316 µM
[32] = second compound 10 µM, first compound 0.1 µM
[33] = second compound 10 µM, first compound 0.316 µM
[34] = second compound 10 µM, first compound 1 µM
[35] = second compound 10 µM, first compound 3.16 µM
[36] = second compound 10 µM, first compound 10 µM
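Note: spheroids exposed to the compounds for one week.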
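Throughout, for viability, T/C: percent of tumor spheroid viability relative to DMSO vehicle control wells.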

Compound: CC1COCCN1c1cc(-c2ccnn2C)c2ccnc(-c3ccn[nH]3)c2n1 (stereo unspecified) + CN(C)c1ccc(Nc2c3ccc(NC(=O)CCN4CCCC4)cc3nc3cc(NC(=O)CCN4CCCC4)ccc23)cc1
IC50 (second compound 0.0316 µM): 37.2 nM
IC50 (second compound 0.1 µM): 32.2 nM
IC50 (second compound 0.316 µM): < 31.6 nM
IC50 (second compound 1 µM): < 31.6 nM
IC50 (second compound 3.16 µM): < 31.6 nM
IC50 (second compound 10 µM): < 31.6 nM
viability, T/C [1]: 57.1%
viability, T/C [2]: 6.61%
viability, T/C [3]: 3.14%
viability, T/C [4]: 3%
viability, T/C [5]: 4.69%
viability, T/C [6]: 8.34%
viability, T/C [7]: 50.8%
viability, T/C [8]: 7.66%
viability, T/C [9]: 2.82%
viability, T/C [10]: 3.38%
viability, T/C [11]: 5.04%
viability, T/C [12]: 7.27%
viability, T/C [13]: 46.7%
viability, T/C [14]: 6.13%
viability, T/C [15]: 3.67%
viability, T/C [16]: 3.77%
viability, T/C [17]: 5.39%
viability, T/C [18]: 7.84%
viability, T/C [19]: 44%
viability, T/C [20]: 7.67%
viability, T/C [21]: 3.43%
viability, T/C [22]: 3.61%
viability, T/C [23]: 4.71%
viability, T/C [24]: 8.81%
viability, T/C [25]: 27.2%
viability, T/C [26]: 6.07%
viability, T/C [27]: 3.25%
viability, T/C [28]: 3.51%
viability, T/C [29]: 5.21%
viability, T/C [30]: 7.01%
viability, T/C [31]: 12.7%
viability, T/C [32]: 7.23%
viability, T/C [33]: 4.41%
viability, T/C [34]: 3.59%
viability, T/C [35]: 4.61%
viability, T/C [36]: 2.61%

Compound: CC1COCCN1c1cc(C2(O)CC3CCC(C2)O3)c2cnn(-c3ccn[nH]3)c2n1 (stereo unspecified) + CN(C)c1ccc(Nc2c3ccc(NC(=O)CCN4CCCC4)cc3nc3cc(NC(=O)CCN4CCCC4)ccc23)cc1
IC50 (second compound 0.0316 µM): < 31.6 nM
IC50 (second compound 0.1 µM): < 31.6 nM
IC50 (second compound 0.316 µM): < 31.6 nM
IC50 (second compound 1 µM): < 31.6 nM
IC50 (second compound 3.16 µM): < 31.6 nM
IC50 (second compound 10 µM): < 31.6 nM
viability, T/C [1]: 25.4%
viability, T/C [2]: 5.25%
viability, T/C [3]: 3.07%
viability, T/C [4]: 5.38%
viability, T/C [5]: 6.51%
viability, T/C [6]: 7.85%
viability, T/C [7]: 30%
viability, T/C [8]: 5.86%
viability, T/C [9]: 3.33%
viability, T/C [10]: 4.56%
viability, T/C [11]: 7.53%
viability, T/C [12]: 8.91%
viability, T/C [13]: 22.3%
viability, T/C [14]: 6.08%
viability, T/C [15]: 5.15%
viability, T/C [16]: 4.96%
viability, T/C [17]: 6.17%
viability, T/C [18]: 8.92%
viability, T/C [19]: 29.2%
viability, T/C [20]: 3.86%
viability, T/C [21]: 4.06%
viability, T/C [22]: 4.6%
viability, T/C [23]: 6.32%
viability, T/C [24]: 7.75%
viability, T/C [25]: 18.8%
viability, T/C [26]: 5.47%
viability, T/C [27]: 3.21%
viability, T/C [28]: 4.64%
viability, T/C [29]: 6.84%
viability, T/C [30]: 6.31%
viability, T/C [31]: 12.7%
viability, T/C [32]: 4.76%
viability, T/C [33]: 4.43%
viability, T/C [34]: 2.68%
viability, T/C [35]: 3.3%
viability, T/C [36]: 1.22%

IC50 (second compound 0.0316 µM): > 10000 nM
IC50 (second compound 0.1 µM): > 10000 nM
IC50 (second compound 0.316 µM): < 31.6 nM
IC50 (second compound 1 µM): < 31.6 nM
IC50 (second compound 3.16 µM): < 31.6 nM
IC50 (second compound 10 µM): < 31.6 nM
Compound: COc1ncnc(C2CC2)c1-c1ncc2cnn(Cc3ccc(-c4nc(C(F)(F)F)cn4C(C)C)cc3)c2n1 + Cc1cnc(CNC(=O)c2c(=O)c3ccc(N4CCCN(C)CC4)nc3n3c2sc2ccccc23)cn1
viability, T/C [1]: 94.7%
viability, T/C [2]: 76%
viability, T/C [3]: 76.9%
viability, T/C [4]: 78.2%
viability, T/C [5]: 80.6%
viability, T/C [6]: 77.7%
viability, T/C [7]: 62.5%
viability, T/C [8]: 52.4%
viability, T/C [9]: 54.4%
viability, T/C [10]: 51.4%
viability, T/C [11]: 61.5%
viability, T/C [12]: 58.8%
viability, T/C [13]: 22.1%
viability, T/C [14]: 24.6%
viability, T/C [15]: 24.9%
viability, T/C [16]: 29.5%
viability, T/C [17]: 27.3%
viability, T/C [18]: 22.5%
viability, T/C [19]: 27.8%
viability, T/C [20]: 35.9%
viability, T/C [21]: 29.4%
viability, T/C [22]: 20.9%
viability, T/C [23]: 32%
viability, T/C [24]: 29.5%
viability, T/C [25]: 23.5%
viability, T/C [26]: 29.2%
viability, T/C [27]: 26.2%
viability, T/C [28]: 29.4%
viability, T/C [29]: 32.7%
viability, T/C [30]: 29.4%
viability, T/C [31]: 0.13%
viability, T/C [32]: 0.18%
viability, T/C [33]: 0.34%
viability, T/C [34]: 0.18%
viability, T/C [35]: 1.03%
viability, T/C [36]: 0.25%

Source: PubChem BioAssay AID2060490 (Molecular Pharmacology Branch, DTP, NCI, 2025)
